Values after ≈ are worked out from the molar mass of the structure shown. Where two headings read alike, the source gives them in different places.
How the values were obtained:
Type in all cases: physicochemical
[1] = Thermal treatment (heat-cool cycle by DSC, XRPD of resulting solids); conditions: Heated to 130° C. at 10° C./min, and cooled to 25° C. at 5° C./min
Experimental: Compound 3, Form E was treated with heat-cool cycle by DSC. The resulted solids were characterized by XRPD. Compound 3, Form E, was converted to Compound 3, Form D after desolvation.
Compound 4 Form B was treated with heat-cool cycle by DSC. The resulted solids were checked by XRPD. […] The water was excluded at elevated temperature, then entered in the crystal lattice again at room temperature.
Compound 4 Form C and trace Form B was treated with heat-cool cycle by DSC. The resulted solids were checked by XRPD. The sample was converted to low crystalline (LC) Form B after heating to 175° C.
Compound 4 Form D was treated with heat-cool cycle by DSC. The resulted solids were checked by XRPD. The sample kept unchanged after heating to 140° C., but was converted to a new low crystalline form after heating to 210° C. which was assigned to Form F.

[2] = Slurry study evaluated by XRPD
Experimental: About 20 mg of Compound 3, Form B was weighed into a sample vial and then 1 mL of solvent was added to make a suspension. The suspension was stirred at room temperature or 50° C. for 3 days and 11 days. Then, the wet solid was collected by filtration and analyzed by XRPD.
20-30 mg of Compound 4 Form B was added in 1 mL of selected solvents at room temperature or 50° C. The suspension was slurried at room temperature or 50° C. for 3 days and 11 days. The wet solids collected from filtration were examined by XRPD. There were four crystal forms obtained by slurrying, including di-mesylate Forms B, C and D as well as mono-mesylate Form G.

[3] = Solid stability testing (HPLC purity and XRPD)
Experimental: HPLC analysis were performed with an Agilent HPLC 1260 series instrument. HPLC method for stability testing is as follows:
Solid stability testing of Compound 3, Form D was evaluated at the conditions of 60° C. (capped) and 40° C./75% RH (open) for 7 days. Polymorphic form and purity were analyzed by XRPD and HPLC, respectively. […] (capped) and 40° C./75% RH (open) for 7 days.
Solid stability testing of Compound 4 Form B and Form D were evaluated at the conditions of 60° C. (vial close) and 40° C./75% RH (vial open) for 7 days. Polymorphic form and purity were checked by XRPD and HPLC, respectively.

[4] = Dynamic vapor sorption/desorption (DVS) with post-DVS XRPD
Experimental: Moisture sorption/desorption data were collected on a DVS Intrinsic. 7-20 mg of a sample was placed into a tared sample chamber and automatically weighed. The anhydrates were analyzed with the following setting parameters:
DVS experiments (FIGS. 17, 19, 21, 34, 35, 48 and 50) and XRPD post-DVS experiments (FIGS. 18, 20, 22, 36, 49 and 51) were conducted in order to study the deliquescence behaviour of the crystalline salts upon expose to humidity.

[5] = Estimated solubility by solvent addition method via visual assessment; conditions: thermodynamic from solid, room temperature, read-out: Solubility
Experimental: Solubility of Compound 3 Form B was estimated in 30 solvents at room temperature and in 9 organic solvents at 70° C. using solvent addition method via visual assessment.
Protocol: about 3 mg of Compound 3 Form B was weighed into a sample vial and the solvent was added gradually with vortex until the drug solution was clear by observation or a total of 2 mL solvent was added. Then, the estimated solubility (mg/mL) was calculated.
Solubility of Compound 4, Form B was estimated in 18 solvents at room temperature using solvent addition method via visual assessment. About 3 mg of Compound 4, Form B was weighed into a sample vial and the solvent was added gradually with vortex until the solution was clear by observation or a total of 2 mL solvent was added. Then, the estimated solubility (mg/mL) was calculated.

[6] = slurry in ACN/Water (9/1, v/v) at RT

XRPD Resulting Form [1]: Form B
XRPD Result Day 3/Wet ([2]; slurry in 2-Me THF at 50° C.): Form D
XRPD Result Day 11/Wet ([2]; slurry in 2-Me THF at 50° C.): Form D
XRPD Result Day 3/Wet ([2]; slurry in 2-Me THF at RT): Form D
XRPD Result Day 11/Wet ([2]; slurry in 2-Me THF at RT): Form D
XRPD Result Day 3/Wet ([2]; slurry in ACN at 50° C.): Form B
XRPD Result Day 11/Wet ([2]; slurry in ACN at 50° C.): Form B
XRPD Result Day 3/Wet ([2]; slurry in ACN at RT): Form B
XRPD Result Day 11/Wet ([2]; slurry in ACN at RT): Form B
XRPD Result Day 3/Wet [2, 6]: Form D
XRPD Result Day 11/Wet [2, 6]: Form D
XRPD Result Day 3/Wet ([2]; slurry in Acetone at 50° C.): Form C
XRPD Result Day 11/Wet ([2]; slurry in Acetone at 50° C.): Form D
XRPD Result Day 11/Wet ([2]; slurry in Acetone at RT): Form D
XRPD Result Day 3/Wet ([2]; slurry in DCM at 50° C.): Form B
XRPD Result Day 3/Wet ([2]; slurry in DCM at RT): Form D
XRPD Result Day 11/Wet ([2]; slurry in DCM at RT): Form D
XRPD Result Day 3/Wet ([2]; slurry in EA at 50° C.): Form D
XRPD Result Day 11/Wet ([2]; slurry in EA at 50° C.): Form D
XRPD Result Day 11/Wet ([2]; slurry in EA at RT): Form D
XRPD Result Day 3/Wet ([2]; slurry in EtOH at RT): Form D
XRPD Result Day 11/Wet ([2]; slurry in EtOH at RT): Form D
XRPD Result Day 3/Wet ([2]; slurry in IPA at 50° C.): Form D
XRPD Result Day 11/Wet ([2]; slurry in IPA at 50° C.): Form D
XRPD Result Day 3/Wet ([2]; slurry in IPA at RT): Form D
XRPD Result Day 11/Wet ([2]; slurry in IPA at RT): Form D
XRPD Result Day 3/Wet ([2]; slurry in IPAC at 50° C.): Form D
XRPD Result Day 11/Wet ([2]; slurry in IPAC at 50° C.): Form D
XRPD Result Day 3/Wet ([2]; slurry in IPAC at RT): Form D
XRPD Result Day 11/Wet ([2]; slurry in IPAC at RT): Form D
XRPD Result Day 3/Wet ([2]; slurry in MEK at 50° C.): Form D
XRPD Result Day 11/Wet ([2]; slurry in MEK at 50° C.): Form D
XRPD Result Day 3/Wet ([2]; slurry in MEK at RT): Form D
XRPD Result Day 11/Wet ([2]; slurry in MEK at RT): Form D
XRPD Result Day 3/Wet ([2]; slurry in MTBE at 50° C.): Form D
XRPD Result Day 11/Wet ([2]; slurry in MTBE at RT): Form D
XRPD Result Day 3/Wet ([2]; slurry in MeOH at RT): Form B
XRPD Result Day 11/Wet ([2]; slurry in MeOH at RT): Form B
XRPD Result Day 3/Wet ([2]; slurry in THF at 50° C.): Form C
XRPD Result Day 3/Wet ([2]; slurry in THF at RT): Form C
XRPD Result Day 11/Wet ([2]; slurry in THF at RT): Form D
XRPD Result ([2]; slurry in Water at RT or 50° C. for 3 days): Mono-mesylate Form G was obtained.
Solid stability ([3]; 40° C./75% RH (open), day 7): partially converted to Form D
Solid stability ([3]; 60° C. (close), 7 days): chemically and physically stable
Purity, Initial T0 ([3]; HPLC, before storage): 99.47%
Purity - 7 days, 60° C. ([3]; HPLC, capped/closed vial, 7 days): 99.41%
Purity - 7 days, 40° C./75% RH ([3]; HPLC, open, 7 days): 99.18%
XRPD, Initial T0 ([3]; before storage): Form B
XRPD - 7 days, 60° C. ([3]; capped/closed vial, 7 days): Form B
Comments: hygroscopicity (DVS) [4]: Hygroscopic
hygroscopicity [4]: hygroscopic
Post-DVS XRPD ([4]; XRPD after DVS versus before): No change
wt % gain (DVS) ([4]; at 80% RH (25° C.)): 9.16 wt %
water uptake (DVS) ([4]; at 80% RH, 25° C.): 9.16%
Reversibility (DVS) ([4]; sorption/desorption): Reversible
solubility ([5]; organic solvent or mixture, 2-Me THF): < 1500 µg/mL
solubility ([5]; organic solvent or mixture, ACN): < 1500 µg/mL
solubility ([5]; organic solvent or mixture, ACN/Water (9/1, v/v)): 15000 to 20000 µg/mL (≈ 29.7 to 39.6 mM)
solubility ([5]; organic solvent or mixture, Acetone): < 1500 µg/mL
solubility ([5]; organic solvent or mixture, DCM): < 1500 µg/mL
solubility ([5]; organic solvent or mixture, DMA): 75000 to 150000 µg/mL (≈ 148 to 297 mM)
solubility ([5]; organic solvent or mixture, DMSO): > 150000 µg/mL
solubility ([5]; organic solvent or mixture, EA): < 1500 µg/mL
solubility ([5]; organic solvent or mixture, EtOH): 3750 to 7500 µg/mL (≈ 7.42 to 14.8 mM)
solubility ([5]; organic solvent or mixture, IPA): < 1500 µg/mL
solubility ([5]; organic solvent or mixture, IPAC): < 1500 µg/mL
solubility ([5]; organic solvent or mixture, MEK): < 1500 µg/mL
solubility ([5]; organic solvent or mixture, MTBE): < 1500 µg/mL
solubility ([5]; organic solvent or mixture, MeOH): 12000 to 20000 µg/mL (≈ 23.7 to 39.6 mM)
solubility ([5]; organic solvent or mixture, MeOH/Water (9/1, v/v)): 75000 to 150000 µg/mL (≈ 148 to 297 mM)
solubility ([5]; organic solvent or mixture, NMP): > 150000 µg/mL
solubility ([5]; organic solvent or mixture, THF): < 1500 µg/mL
solubility ([5]; Water): 75000 to 150000 µg/mL (≈ 148 to 297 mM)
Structure (SMILES): Cc1n[nH]c2nc(-c3ccc(NS(=O)(=O)c4cc(F)ccc4F)c(F)c3)nc(NCCN(C)C)c12 [Compound 4 Form B]

— US20250320215A1, “SALTS OF N-[4-(4-[[2-(DIMETHYLAMINO)ETHYL]AMINO]-3-METHYL-1H-PYRAZOLO[3,4-D]PYRIMIDIN-6-YL)-2-FLUOROPHENYL]-2,5-DIFLUOROBENZENESULFONAMIDE AND CRYSTALLINE FORMS THEREOF” (THRYV THERAPEUTICS INC, priority 2022, published 2025)
